In paper PMC5362750, “Discovery of Potent, Selective, and Orally Bioavailable Small-Molecule Modulators of the Mediator Complex-Associated Kinases CDK8 and CDK19” (Journal of Medicinal Chemistry, 2016):
≈ marks a conversion by molar mass, not a printed value. Like-named read-outs stand apart in the source and are kept apart here.

Tests used:
[1] = Caco-2 Papp determination; conditions: human, Caco-2, pH 7.4
[2] = Thermodynamic solubility determination; type: physicochemical; conditions: phosphate buffer, pH 7.4, 37 °C, read-out: Solubility Therm.
[3] = In vivo mouse PK; conditions: for Vd / clearance / bioavailability: female, NMRI, plasma; for Vd / clearance: iv; for clearance: Cl; for bioavailability: po, 0.5 mg/kg

Compound	Papp A→B at 2 h, 1 μM [1] [×10⁻⁶ cm/s]	efflux ratio at 2 h, 1 μM [1]	solubility at 24 h ([2]; pH 7.4, TFA salt) [µg/mL]	Vd ([3]; 0.2 mg/kg) [L/kg]	clearance ([3]; 0.2 mg/kg, 0.2 mg/kg iv) [mL/min/kg]	bioavailability [3] [%]	solubility at 24 h ([2]; pH 7.4, free base) [µg/mL]	Cl ([3]; 0.2 mg/kg iv, 0.2 mg/kg) [mL/min/kg]
O=C1NCCC12CCN(c1c(Cl)cncc1-c1ccc(-c3cnn(CCO)c3)cc1)CC2 [Compound 17]	22.7	19.5	112	1.61	47.2	7		
CC(C)(O)Cn1cc(-c2ccc(-c3cncc(Cl)c3N3CCC4(CCNC4=O)CC3)cc2)cn1 [Compound 18]	32	26.1		0.8	16.5		33 (≈ 68.7 µM)	
CN(C)CCn1cc(-c2ccc(-c3cncc(Cl)c3N3CCC4(CCNC4=O)CC3)cc2)cn1 [Compound 19]	25.4	12.4						
O=C1NCCC12CCN(c1c(Cl)cncc1-c1ccc(-c3cnn(CCN4CCCC4)c3)cc1)CC2 [Compound 20]	30.4	5.3						
Cc1nc(-c2ccc(-c3cncc(Cl)c3N3CCC4(CCNC4=O)CC3)cc2)cn1C [Compound 21]	18.8		33	6.41	278	12		
CN1c2ccc(-c3cncc(Cl)c3N3CCC4(CCNC4=O)CC3)cc2CS1(=O)=O [Compound 23, 8-(3-Chloro-5-(1-methyl-2,2-dioxido-1,3-dihydrobenzo[c]isothiazol-5-yl)pyridin-4-yl)-2,8-diazaspiro[4.5]decan-1-one]	29	3.3						
CN1c2cc(-c3cncc(Cl)c3N3CCC4(CCNC4=O)CC3)ccc2CS1(=O)=O [Compound 24]	33.8	11						
Nc1n[nH]c2cc(-c3cncc(Cl)c3N3CCC4(CCNC4=O)CC3)ccc12 [Compound 25, 8-(3-(3-Amino-1H-indazol-6-yl)-5-chloropyridin-4-yl)-2,8-diazaspiro[4.5]decan-1-one]	0.03		540	1.21	29.2	5		
Cn1cc(-c2ccc(-c3cncc(Cl)c3N3CCC4(CC3)CNC(=O)O4)cc2)cn1 [Compound 41]	30.6	2.4						
CN1c2ccc(-c3cncc(Cl)c3N3CCC4(CC3)CNC(=O)O4)cc2CS1(=O)=O [Compound 42, 8-(3-Chloro-5-(1-methyl-2,2-dioxido-1,3-dihydrobenzo[c]isothiazol-5-yl)pyridin-4-yl)-1-oxa-3,8-diazaspiro[4.5]decan-2-one]	16.6		53	1.34	47.7			
Cn1cc(-c2ccc(-c3cncc(Cl)c3N3CCC4(CC3)NCNC4=O)cc2)cn1 [Compound 44]	19.1			1.12	51.2	20		
Cn1cc(-c2ccc(-c3cncc(Cl)c3N3CCC4(CC3)NC(=O)NC4=O)cc2)cn1 [Compound 45]	15.9		39	1.26	26	11		
CN1c2ccc(-c3cncc(Cl)c3N3CCC4(CC3)NC(=O)NC4=O)cc2CS1(=O)=O [Compound 46]	3.3	126						
CC1=NC2(CCN(c3c(Cl)cncc3-c3ccc4c(c3)CS(=O)(=O)N4C)CC2)C(=O)N1 [Compound 47]	19.8		613	1.96	69.2	9		
Cn1cc(-c2ccc(-c3cncc(Cl)c3N3CCC4(CC3)NC(=O)CNC4=O)cc2)cn1 [Compound 48]	6.7		8	1.84	71.2	5		
CN(C)CCC1(C#N)CCN(c2c(Cl)cncc2-c2ccc3c(c2)CS(=O)(=O)N3C)CC1 [Compound 51]	35.3							
COCCN1CCCC12CCN(c1c(Cl)cncc1-c1ccc3c(c1)CS(=O)(=O)N3C)CC2 [Compound 54, 5-(5-Chloro-4-(1-(2-methoxyethyl)-1,8-diazaspiro[4.5]decan-8-yl)pyridin-3-yl)-1-methyl-1,3-dihydrobenzo[c]isothiazole 2,2-Dioxide]	34.3	1.7						
CN1c2ccc(-c3cncc(F)c3N3CCC4(CCNC4=O)CC3)cc2CS1(=O)=O [Compound 61, 8-(3-Fluoro-5-(1-methyl-2,2-dioxido-1,3-dihydrobenzo[c]isothiazol-5-yl)pyridin-4-yl)-2,8-diazaspiro[4.5]decan-1-one]	32.9	3		1.86	132	5		132

Compound	Papp A→B at 2 h, 1 μM [1] [×10⁻⁶ cm/s]	efflux ratio at 2 h, 1 μM [1]	solubility at 24 h ([2]; pH 7.4, TFA salt) [µg/mL]	Vd ([3]; 0.2 mg/kg) [L/kg]	clearance ([3]; 0.2 mg/kg, 0.2 mg/kg iv) [mL/min/kg]	bioavailability [3] [%]	solubility at 24 h ([2]; pH 7.4, free base) [µg/mL]	Cl ([3]; 0.2 mg/kg iv, 0.2 mg/kg) [mL/min/kg]
CN1c2ccc(-c3cncc(F)c3N3CCC4(CC3)CNC(=O)O4)cc2CS1(=O)=O [Compound 63, 8-(3-Fluoro-5-(1-methyl-2,2-dioxido-1,3-dihydrobenzo[c]isothiazol-5-yl)pyridin-4-yl)-1-oxa-3,8-diazaspiro[4.5]decan-2-one]	16	6.5		2.67	87.5	27		
Cn1cc(-c2ccc(-c3cncc(C(F)(F)F)c3N3CCC4(CC3)CNC(=O)O4)cc2)cn1 [Compound 72, 8-(3-(4-(1-Methyl-1H-pyrazol-4-yl)phenyl)-5-(trifluoromethyl)pyridin-4-yl)-1-oxa-3,8-diazaspiro[4.5]decan-2-one 2,2,2-Trifluoroacetate]	47.4		35	2.3	30.3	48		
Cn1cc(-c2ccc(-c3cnc(N)c(Cl)c3N3CCC4(CCNC4=O)CC3)cc2)cn1 [Compound 85]	37	4.9		0.74	11.2	61		
CC(C)(O)Cn1cc(-c2ccc(-c3cnc(N)c(Cl)c3N3CCC4(CCNC4=O)CC3)cc2)cn1 [Compound 86, 8-(2-Amino-3-chloro-5-(4-(1-(2-hydroxy-2-methylpropyl)-1H-pyrazol-4-yl)phenyl)pyridin-4-yl)-2,8-diazaspiro[4.5]decan-1-one]	25.4	42.7		1.22	17.8	7		
CN1c2ccc(-c3cnc(N)c(Cl)c3N3CCC4(CCNC4=O)CC3)cc2CS1(=O)=O [Compound 88]	19.3	5.8						
Cn1cc(-c2ccc(-c3cnc(N)c(Cl)c3N3CCC4(CC3)CNC(=O)O4)cc2)cn1 [Compound 89]	48.3		5	1.4	22.5	35		
CN1c2ccc(-c3cnc(N)c(Cl)c3N3CCC4(CC3)CNC(=O)O4)cc2CS1(=O)=O [Compound 90]	10.3		2	1.81	36	9		
Cn1cc(-c2ccc(-c3cnc(N)c(Cl)c3N3CCC4(CC3)NC(=O)NC4=O)cc2)cn1 [Compound 91]	9.6		< 1					
CN1c2ccc(-c3cnc(N)c(F)c3N3CCC4(CCNC4=O)CC3)cc2CS1(=O)=O [Compound 92, 8-(2-Amino-3-fluoro-5-(1-methyl-2,2-dioxido-1,3-dihydrobenzo[c]isothiazol-5-yl)pyridin-4-yl)-2,8-diazaspiro[4.5]decan-1-one]	23.9	29.5		0.86	21.3	37		
CN1c2ccc(-c3cnc(N)c(F)c3N3CCC4(CC3)CNC(=O)O4)cc2CS1(=O)=O [Compound 93]	4	81						
Cn1cc(-c2ccc(-c3cnc(N)c(C(F)(F)F)c3N3CCC4(CCNC4=O)CC3)cc2)cn1 [Compound 94]	20.7							
Cn1cc(-c2ccc(-c3cnc(N)c(C(F)(F)F)c3N3CCC4(CC3)CNC(=O)O4)cc2)cn1 [Compound 95, 8-(2-Amino-5-(4-(1-methyl-1H-pyrazol-4-yl)phenyl)-3-(trifluoromethyl)pyridin-4-yl)-1-oxa-3,8-diazaspiro[4.5]decan-2-one 2,2,2-Trifluoroacetate]	29.1		8	1.93	25	42		
CNc1n[nH]c2cc(-c3cncc(Cl)c3N3CCC4(CCNC4=O)CC3)ccc12 [Compound 100, 8-(3-Chloro-5-(3-(methylamino)-1H-indazol-6-yl)pyridin-4-yl)-2,8-diazaspiro[4.5]decan-1-one]	28.8							
Cn1nc(N)c2ccc(-c3cncc(Cl)c3N3CCC4(CCNC4=O)CC3)cc21 [Compound 101, 8-(3-(3-Amino-1-methyl-1H-indazol-6-yl)-5-chloropyridin-4-yl)-2,8-diazaspiro[4.5]decan-1-one 2,2,2-Trifluoroacetate]	39							
CN(C)c1nn(C)c2cc(-c3cncc(Cl)c3N3CCC4(CCNC4=O)CC3)ccc12 [Compound 102, 8-(3-Chloro-5-(3-(dimethylamino)-1-methyl-1H-indazol-6-yl)pyridin-4-yl)-2,8-diazaspiro[4.5]decan-1-one]	45.9							
CN1CNC(=O)C12CCN(c1c(Cl)cncc1-c1ccc(-c3cnn(C)c3)cc1)CC2 [Compound 104]	30.6							
CC(C)n1cc(-c2ccc(-c3cnc(N)c(Cl)c3N3CCC4(CCNC4=O)CC3)cc2)cn1 [Compound 108]	37.4							
Cn1ncc2cc(-c3cnc(N)c(Cl)c3N3CCC4(CC3)CNC(=O)O4)ccc21 [Compound 110]	33.4							
